These results are taken from patent publication US20030134901A1, “Lipoxin compounds and their use in treating cell proliferative disorders” (priority 1993, published 2003).

Series [1] deals with T1, LTB4 specific binding sites of HL-60 cells (Homo sapiens, UniProt Q15722).
T1 construct: endogenous in cells; host or cells: differentiated HL-60 cells, intact
Description: 3H-LTB4 specific binding to HL-60 cells. The conditions noted are these: competitor 300 nM, differentiated HL-60 cells.

A further series relates to PMA-treated HL-60 cells. Description: Lipoxin metabolism / bio-half-life assay with phorbol ester-treated HL-60 cells. It is filed as in vitro ADME, human. On the procedure: HL-60 cells were purchased from American Type Culture Collection (Rockville, Md.), and other cell culture reagents were from GIBCO (Grand Island, N.Y.). Versene (EDTA) was from Whittaker Bioproducts (Walkersville, Md.). Synthetic 11,12-acetylenic LXA4 methyl ester and LXs were from Cascade Biochemical (Reading, U.K.). 15(S)-15-m-PGE1, PGE1, and 5-HETE were from Cayman Chemical Co. (Ann Arbor, Mich.). [11,12-^3H]LXA4 was prepared from 11,12-acetylenic LXA4 using Lindlar catalyst as a custom tritiation (NET-259, lot 0 2793-275, New England Nuclear, Boston, Mass.). Tritiated products were isolated using RP-HPLC (Fiore et al. (1992) J. Biol. Chem. 267:16168; Serhan, C. N. (1990) Meth. Enzymol. 187:167). Methoxyamine and NAD were from Sigma Chemical Company (St. Louis, Mo.). Manganese dioxide and Adams reagent were from Aldrich Chemical Co. (Milwaukee, Wis.).
Human PMN were obtained from healthy volunteers by gradient centrifugation of heparinized fresh venous blood (Böyum, A. ([…]) Scand. J. Clin. Lab. Invest. 21:77). HL-60 cells were seeded in RPMI supplemented with penicillin (100 U/ml), streptomycin (100 μ/ml), fetal bovine serum (10%) (Hyclone, Logan, Utah) and incubated (37° C. with 5% CO2 atmosphere) in plastic 250 ml flasks. Individual flasks containing […] HL-60 cells/ml were incubated in the presence or absence of phorbol 12-myristate 13-acetate (PMA) (10 or 16 nM, 24-27 h) and adherence was monitored for induction of macrophage-like phenotype as in Collins, S. J. (1987) Blood 70:1233. […]
Incubations with eicosanoids were stopped with cold methanol containing either PGB2 or 5-HETE as internal standards (5-HETE was used when 15-oxo-ETE was quantified). […] Formation of 15-oxo-ETE by 100,000 g supernatants (cf. Agins, A. P. et al. (1987) Agents Actions 21:397; Xun, C-Q. et al.(1991) Biochem. J. 279:553; and Sok, D-E. et al. (1988) Biochem. Biophys. Res. Commun. 156:524) was quantified after RP-HPLC using an ODS column (4.6 mm×25 cm) eluted with methanol/H2O/acetic acid (70:30:0.01, v/v/v) monitored at 280 nm with a flow rate of 1 ml/min. […] On-line spectra were recorded using a diode array detector (Hewlett-Packard 1040M series II) equipped with HPLC^3D ChemStation software (DOS series). […]
The “bio-half-life” of compounds 1-8 was assessed using phorbol ester-treated human promyelocytic leukemia (HL-60) cells as described in Example 2. […]

T1 sequence (Q15722 whole entry): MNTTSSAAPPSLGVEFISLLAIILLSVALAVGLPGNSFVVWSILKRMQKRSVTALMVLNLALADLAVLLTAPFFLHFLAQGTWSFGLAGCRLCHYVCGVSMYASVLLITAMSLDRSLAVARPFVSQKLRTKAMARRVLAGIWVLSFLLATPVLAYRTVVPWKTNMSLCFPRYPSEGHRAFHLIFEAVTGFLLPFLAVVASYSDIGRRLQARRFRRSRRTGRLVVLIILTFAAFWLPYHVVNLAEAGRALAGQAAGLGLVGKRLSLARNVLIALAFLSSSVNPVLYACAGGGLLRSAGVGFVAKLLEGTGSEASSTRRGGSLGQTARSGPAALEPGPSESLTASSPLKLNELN

With `CCCCC[C@H](O)/C=C/C=C\C=C\C=C\[C@@H](O)[C@@H](O)CCCC(=O)O` [LXA4, (5S, 6R, 15S)-trihydroxy-7E, 9E, 11Z, 13E-eicosatetraenoic acid], the “competition with 3H-LTB4 (0.3 nM) binding” value in series [1] was “unable to compete”. In addition, the LXA4 metabolized with PMA-treated HL-60 cells (PMA-treated HL-60 cells, within the first 60 s of exposure) is given as above 70%. Besides, the “LXA4 converted” value in the series with PMA-treated HL-60 cells (within five minutes of addition to the cell incubation) is on record as “more than 95%”.
